Test results published in patent US8420606B2, “Method of utilizing physiological activity of rare saccharide and composition containing rare saccharide” (priority 2002, dated 2013).
Entries after “also recorded” stand apart in the source; their conditions may differ.

Experiments:
[1] = tested on: Pancreas β-cell strains INS-1; assay: insulin secretion from pancreas β-cell strain, ELISA; assay type: cell-based, rat; settings: for concentration at which insulin secretion stimulus reached a plateau / insulin secretion into culture medium: saccharide alone; for insulin secretion into culture medium: 2.8-16.7 mM
Method: Pancreas β-cell strains INS-1 derived from insulinoma were cultured under the culture medium condition of (DMEM +10% FBS) in accordance with the ordinary method. The INS-1 cells at density of about 70% were pipitted into a 96-well culture dish, and the following experiments were performed. D-psicose was used as the ketohexose belonging to the rare saccharides.
After cultivation for 24 hours with the glucose concentration in the culture medium set to 2.8 mM, 5.6 mM, 11.2 mM and 16.7 mM, the insulin concentration in the culture medium was measured by using an ELISA (insulin kit).
By using the ELISA method, the insulin concentration in the culture medium was measured while the D-psicose concentration in the culture medium was changed to 0 mM, 2.8 mM, 5.6 mM, 11.2 mM and 16.7 mM.

Daudi = assay: blood-system cancer cell strain proliferation, Coulter Counter, Daudi; assay type: cell-based; settings: for Daudi-cell proliferation inhibitory effect: 0.05-50 mM, 7 days, D-glucose control; for Daudi cell number relative to glucose: seventh day, glucose = 100%
Method: (§1) (2) Method: Total 6 kinds of cell strains, i.e., Myeloid (HL-60, THP-1, KG-1), T-cell (MT-2), and B-Cell (Daudi, KS-1), and 3 kinds of rare saccharides (i.e., D-psicose, D-altrose, and D-allose), were employed. The culture medium and the cells were prepared to be 1 mL in total and 1×10^5 in number, respectively. Then, the cell number at each of fourth day and seventh day was counted by using a Coulter Counter. Each rare saccharide was added at concentrations of 0.05, 0.5, 5 and 50 mM, while D-glucose was used as a control.
(§2) Culture Medium: FBS 10% added RPMI1460
(§3) Cultivation Conditions: 37° C., 5% CO2
(§4) Cultivation Vessel: FALCON, MULTIWELL, 12 wells
(§5) Number of Cultivation Days: 7 days
(§6) Saccharides Concentration: 0.05, 0.5, 5, 50 mM

HL-60 = assay: blood-system cancer cell strain proliferation, Coulter Counter, HL60; assay type: cell-based; settings: for HL60 cell number relative to glucose: seventh day, glucose = 100%; for HL60 proliferation inhibitory effect: 0.05-50 mM, 7 days, D-glucose control
Method: as §1, §2, §3, §4, §5, §6

[2] = influence of psicose upon hyperglycemia; assay type: in vivo, rat; settings: 0.5 g/kg intravenous; compared with deoxyglucose control
Method: IVGTT was conducted on 8-week old male SD rats by inserting a catheter through the jugular vein, injecting 50% glucose at intervals of 20 minutes to make a hyperglycemic state, and then injecting psicose and deoxyglucose. A rare saccharide was administrated to 1 rat, and deoxyglucose was administrated to 1 rat.
Perform intravenous injection (IV) at 0.5 g/kg (i.e., 0.5 g/1000 g=500 mg/1000 g=0.5 mg/g).
Prepare rare-saccharide and deoxyglucose solutions in concentration of 0.5 g/mL (i.e., 0.5 g/1000 ul=500 mg/1000 ul=0.5 mg/ul). Prepare 2 mL of solution for each concentration.
Intravenously inject 200 ul of the solution for a 200 g rat.
Intravenously inject 250 ul of the solution for a 250 g rat.
Inject 300 ul of physiological saline after the intravenous injection.
Collect 150 ul of blood sample.
Collect blood at 9 points in time, i.e., 0, 5, 10, 15, 20, 25, 30, 45 and 60 minutes.

rat intestinal tract = assay: glucose absorption in reversed intestinal tract; settings: D-psicose at concentration comparable to that of glucose
Method: To clarify an influence of D-psicose upon the absorption of glucose, the influence of D-psicose upon the absorption of glucose was analyzed by using a rat intestinal tract. The absorption of glucose was analyzed by measuring concentrations outside and inside a mucous membrane of an intestinal tract by a quantitative manner based on the glucose oxidase method. How the absorption of glucose changed under coexistence of D-psicose and glucose was measured. Further, how a sugar absorption system changed was analyzed by using an intestinal tract of a rat administrated with D-psicose for a long time. […] After the lapse of a certain time, the solution on the serous membrane side was sampled and the glucose concentration was measured. By adding D-psicose at various concentrations, an influence of D-psicose upon transport of glucose from the mucous membrane side to the serous membrane side was studied.

microglia migration = assay: brain ischemia model, number of appearing microglias; assay type: in vivo, gerbil; settings: 200 mg/kg femoral vein 5 minutes before and immediately after 5 minutes ischemia; after 1 week
Method: In this Example 11 described below, an influence of ketohexose belonging to the rare saccharides upon the number of microglias appearing with ischemia is examined. […] D-psicose was used as the ketohexose belonging to the rare saccharides. As a brain ischemia model, the bilateral common carotid artery of a male gerbil with weight of about 70 g was shut off for 5 minutes. In this model, neurons in the hippocampus CA1 area of a brain are peculiarly brought to ischemic cell necrosis.
Comparative studies were made on three exemplified groups, i.e., one group not subjected to ischemia (control: Sham), another group subject to ischemia+treatment with physiological saline, and still another group subject to ischemia+treatment with D-psicose.
The D-psicose treatment was performed through the steps of dissolving D-psicose in physiological saline to prepare a D-psicose solution with concentration of 200 mg/mL, and administrating the D-psicose solution to the ischemia model through the femoral vein in units of 200 mg/kg at 5 minuets before ischemia and immediately after the ischemia. The physiological saline treatment was performed by administering only physiological saline instead of the D-psicose solution. After 1 week from the ischemia, perfusion fixation was made and a frozen brain sample of 20 μm was prepared, followed by hematoxyline eosin dyeing.

KG-1 = assay: blood-system cancer cell strain proliferation, Coulter Counter, KG1; assay type: cell-based; settings: 0.05-50 mM, 7 days, including the control
Method: as §1, §2, §3, §4, §5, §6

livers of rats = assay: rat liver ischemia-reperfusion, survival; assay type: in vivo; settings: liver ischemia 90 minutes then reperfusion; D-allose 0.2 g/kg perfused before the ischemia; usually only 30%
Method: When a surgical operation for intestinal organs, such as the liver, is performed, a blood flow is always temporarily stopped. This brings the intestinal organs into the ischemia state. When blood is started to flow again after the surgery, active oxygen is produced in large amount from leukocyte at that time, which is considered as one of major causes bringing about the organic injury. The inventors conducted an experiment through the steps of bringing the livers of rats into the ischemia state for a relatively long time, i.e., 90 minutes, and then reperfusing blood to examine the survival rate of the rats after 3 months depending on application or non-application of the rare saccharide. While the survival rate is usually only 30%, it increased to about 70% by perfusing D-allose at 0.2 g/kg before the ischemia. […] This effect is considered to be one factor making D-allose effective in organ protection.

SMILES | concentration at which insulin secretion stimulus reached a plateau [1] [mM] | insulin secretion into culture medium ([1]; 24 hours) | Daudi-cell proliferation inhibitory effect (Daudi) | HL60 cell number relative to glucose (HL-60; 0.05 mM) [%] | HL60 cell number relative to glucose (HL-60; 0.5 mM) [%] | HL60 cell number relative to glucose (HL-60; 5 mM) [%] | HL60 proliferation inhibitory effect (HL-60) | HL60 cell number relative to glucose (HL-60; 50 mM) [%] | also measured
O=C[C@H](O)[C@@H](O)[C@H](O)[C@H](O)CO [D-glucose, reference compound] | 11.2 | the insulin secretion from the cells was stimulated |  |  |  |  |  |  | 
O=C(CO)[C@H](O)[C@H](O)[C@H](O)CO [D-psicose] | 11.2 | insulin was secreted depending on the D-psicose concentration; also recorded: a reaction of secreting insulin depending on the concentration of D-psicose was found | showed no effect | 84.7 | 80.7 | 84.2 | showed an inhibitory effect | 93.6 | blood sugar value in hyperglycemic state [2]: reduced more quickly; insulin concentration in hyperglycemic state [2]: an increase in the insulin secretion; rise of glucose concentration on the serous membrane side (rat intestinal tract): significantly inhibited; number of appearing microglias (microglia migration): reduced; insulin secretion with D-psicose added to glucose ([1]; glucose fixed at 11.2 mM, psicose 2.8-16.7 mM, 24 hours): further stimulated in an additive way; also recorded: further promoted
O=C[C@H](O)[C@H](O)[C@H](O)[C@H](O)CO [D-allose] |  |  | having the inhibitory effect | 62.6 | 67.7 | 41.5 | having the inhibitory effect | 30.7 | Daudi cell number relative to glucose (Daudi; 0.05 mM): 85.9%; Daudi cell number relative to glucose (Daudi; 0.5 mM): 80.6%; Daudi cell number relative to glucose (Daudi; 5 mM): 62.2%; Daudi-cell proliferation inhibitory effect (Daudi; listed as allose): showed an inhibitory effect; Daudi cell number relative to glucose (Daudi; 50 mM): 3.9%; HL60 proliferation inhibitory effect (HL-60; listed as allose): showed an inhibitory effect; KG1 proliferation inhibitory effect (KG-1): having the inhibitory effect; survival rate of the rats after 3 months (livers of rats): about 70%
